# Laboratory results from the Kinase Knowledgebase extract (Sharma et al. 2016).
# Molecular target: CDK2 (UniProt P24941)
# Experiment: Enzyme Assay
# Settings: not given
row,Ki,Compound
1,710 nM,COc1cc(O)c(Br)c(-c2csc(-c3sc(Nc4cc(OC)c(OC)c(OC)c4)nc3N)n2)c1
2,3200 nM,Nc1nc(Nc2ccc(S(N)(=O)=O)cc2)sc1-c1nc(-c2cc3ccccc3s2)cs1
3,58 nM,Nc1nc(Nc2ccc(S(N)(=O)=O)cc2)sc1-c1nc(C(=O)Nc2ccccc2)cs1

# Same assay, conditions: concentration not given here
row,Compound,inhibition
1,COc1cc(Nc2nc(N)c(-c3nc(-c4ccc(O)c(O)c4)cs3)s2)cc(OC)c1OC,-10.3%
2,N#Cc1ccc(-c2csc(-c3sc(Nc4ccc(S(N)(=O)=O)cc4)nc3N)n2)cc1,13.3%
3,COc1cc(Nc2nc(N)c(-c3nc(-c4cc(C)c(O)c(C)c4)cs3)s2)cc(OC)c1OC,28.4%
4,COc1cc(Nc2nc(N)c(-c3nc(-c4csc5ccccc45)cs3)s2)cc(OC)c1OC,9.1%
5,CN(C)c1ccc(Nc2nc(N)c(-c3nc(-c4ccccc4[N+](=O)[O-])cs3)s2)cc1,8.3%
6,COc1cc(Nc2nc(N)c(-c3nc(-c4ccc(Cl)c(Cl)c4)cs3)s2)cc(OC)c1OC,7.3%
7,COc1cc(Nc2nc(N)c(-c3nc(-c4ccccc4OC(=O)c4ccccc4)cs3)s2)cc(OC)c1OC,4.6%
8,COC(=O)c1ccc(-c2csc(-c3sc(Nc4cc(OC)c(OC)c(OC)c4)nc3N)n2)cc1,0%
9,COc1ccc(-c2csc(-c3sc(Nc4cc(OC)c(OC)c(OC)c4)nc3N)n2)c(OC)c1,4.9%
10,CCCCCc1ccc(-c2csc(-c3sc(Nc4cc(OC)c(OC)c(OC)c4)nc3N)n2)cc1,11.3%
11,COc1cc(Nc2nc(N)c(-c3nc(-c4cc(Br)c(Cl)s4)cs3)s2)cc(OC)c1OC,-0.2%
12,COc1cc(Nc2nc(N)c(-c3nc(-c4ccc(-c5ccccc5)cc4)cs3)s2)cc(OC)c1OC,20.4%
13,COc1cc(Nc2nc(N)c(-c3nc(-c4ccc(Cl)cc4Cl)cs3)s2)cc(OC)c1OC,3.8%
14,COc1ccc(OC)c(-c2csc(-c3sc(Nc4cc(OC)c(OC)c(OC)c4)nc3N)n2)c1,12.2%
15,Nc1nc(Nc2ccc(S(N)(=O)=O)cc2)sc1-c1nc(-c2ccc(F)cc2F)cs1,57%
16,COc1cc(Nc2nc(N)c(-c3nc(-c4ccc(Cl)c(C)c4)cs3)s2)cc(OC)c1OC,-4.4%
17,Nc1nc(Nc2ccc(S(N)(=O)=O)cc2)sc1-c1nc(-c2ccc(F)cc2)cs1,27%

row,Compound,inhibition
1,COc1cc(Nc2nc(N)c(-c3nc(-c4ccccc4[N+](=O)[O-])cs3)s2)cc(OC)c1OC,1.9%
2,COc1cc(Nc2nc(N)c(-c3nc(-c4cc(C(C)(C)C)c(O)c(C(C)(C)C)c4)cs3)s2)cc(OC)c1OC,5.3%
3,COc1cc(Nc2nc(N)c(-c3nc(-c4ccc[nH]4)cs3)s2)cc(OC)c1OC,14.3%
4,Cc1c(-c2csc(-c3sc(Nc4ccc(C(C)C)cc4)nc3N)n2)sc2ccc(Cl)cc12,34.8%
5,Cc1c(-c2csc(-c3sc(Nc4ccc(N(C)C)cc4)nc3N)n2)sc2ccc(Cl)cc12,27.2%
6,COc1cc(Nc2nc(N)c(-c3nc(-c4ccc5c(c4)CCC(=O)N5)cs3)s2)cc(OC)c1OC,-7.8%
7,COc1cc(Nc2nc(N)c(-c3nc(-c4sc5ccccc5c4C)cs3)s2)cc(OC)c1OC,23.1%
8,COc1cc(Nc2nc(N)c(-c3nc(-c4ccc(F)c(F)c4)cs3)s2)cc(OC)c1OC,-5%
9,COc1ccc(-c2csc(-c3sc(Nc4ccc(C(C)C)cc4)nc3N)n2)c(OC)c1,-22.6%
10,CCCCCc1ccc(-c2csc(-c3sc(Nc4ccc(N(C)C)cc4)nc3N)n2)cc1,-6%
11,COc1cc(Nc2nc(N)c(-c3nc(-c4cccc([N+](=O)[O-])c4)cs3)s2)cc(OC)c1OC,6.6%
12,CCN(CC)c1ccc(-c2csc(-c3sc(Nc4cc(OC)c(OC)c(OC)c4)nc3N)n2)cc1,6.3%
13,COc1cc(Nc2nc(N)c(-c3nc(-c4ccc(C(F)(F)F)cc4)cs3)s2)cc(OC)c1OC,13.9%
14,COc1cc(Nc2nc(N)c(-c3nc(-c4cc(C(=O)C(Cl)(Cl)Cl)n(C)c4)cs3)s2)cc(OC)c1OC,3.9%
15,CC(C)c1ccc(Nc2nc(N)c(-c3nc(-c4ccc(OC(=O)c5ccccc5)cc4)cs3)s2)cc1,7.3%
16,Nc1nc(Nc2ccc(S(N)(=O)=O)cc2)sc1-c1nc(-c2ccc(Cl)cc2Cl)cs1,36%
17,COc1cc(Nc2nc(N)c(-c3nc(-c4ccc([N+](=O)[O-])cc4)cs3)s2)cc(OC)c1OC,-14.4%

# The next lines start with the values.
row,inhibition,Compound
1,7.3%,COc1cc(Nc2nc(N)c(-c3nc(-c4cc(C)sc4C)cs3)s2)cc(OC)c1OC
2,20.9%,CC(C)c1ccc(Nc2nc(N)c(-c3nc(-c4ccccc4)cs3)s2)cc1
3,-9.9%,CCCCCc1ccc(-c2csc(-c3sc(Nc4ccc(S(N)(=O)=O)cc4)nc3N)n2)cc1
4,9.65%,COc1cc(Nc2nc(N)c(-c3nc(-c4sc5ccc(Cl)cc5c4C)cs3)s2)cc(OC)c1OC
5,15.1%,CC(C)c1ccc(Nc2nc(N)c(-c3nc(-c4ccc(Cl)cc4Cl)cs3)s2)cc1
6,-4.5%,Cc1onc(-c2ccccc2)c1-c1csc(-c2sc(Nc3ccc(S(N)(=O)=O)cc3)nc2N)n1
7,25%,Cc1c(F)cc(-c2csc(-c3sc(Nc4ccc(S(N)(=O)=O)cc4)nc3N)n2)cc1Cl
8,0.1%,COc1cc(Nc2nc(N)c(-c3nc(-c4ccc(Cl)cc4)cs3)s2)cc(OC)c1OC
9,12.4%,COc1cc(Nc2nc(N)c(-c3nc(-c4ccc(-c5ccc(Cl)cc5Cl)o4)cs3)s2)cc(OC)c1OC
10,26.7%,COc1cc(Nc2nc(N)c(-c3nc(-c4ccc(CC(=O)O)s4)cs3)s2)cc(OC)c1OC
11,17.8%,Nc1nc(Nc2ccc(S(N)(=O)=O)cc2)sc1-c1nc(-c2cccc([N+](=O)[O-])c2)cs1
12,-4.3%,CC(C)c1ccc(Nc2nc(N)c(-c3nc(-c4ccc5oc6ccccc6c5c4)cs3)s2)cc1
13,-6%,COc1cc(Nc2nc(N)c(-c3nc(-c4c(Cl)cc(C(F)(F)F)cc4Cl)cs3)s2)cc(OC)c1OC
14,4.2%,COc1cc(Nc2nc(N)c(-c3nc(-c4ccc5c(c4)C(C)(C)CCC5(C)C)cs3)s2)cc(OC)c1OC
15,35%,COc1cc(Nc2nc(N)c(-c3nc(-c4ccc(F)cc4)cs3)s2)cc(OC)c1OC
16,0%,Nc1nc(Nc2ccc(S(N)(=O)=O)cc2)sc1-c1nc(-c2ccc(-c3ccccc3)cc2)cs1
17,-0.4%,COc1cccc(-c2csc(-c3sc(Nc4cc(OC)c(OC)c(OC)c4)nc3N)n2)c1
18,11.8%,COc1cc(OC)c(-c2csc(-c3sc(Nc4cc(OC)c(OC)c(OC)c4)nc3N)n2)c(O)c1Cl
19,13.6%,COc1cc(Nc2nc(N)c(-c3nc(-c4c(-c5ccccc5)noc4C)cs3)s2)cc(OC)c1OC
20,36%,CCOC(=O)c1nc(-c2sc(Nc3ccc(S(N)(=O)=O)cc3)nc2N)sc1Cc1ccccc1
21,14.6%,COc1cc(Nc2nc(N)c(-c3nc(-c4ccc(OC(=O)c5ccccc5)cc4)cs3)s2)cc(OC)c1OC
22,29%,Nc1nc(Nc2ccc(S(N)(=O)=O)cc2)sc1C1=NC2(O)OCCC2S1 (stereo unspecified)
23,4.4%,CCOC(=O)c1ccccc1-c1csc(-c2sc(Nc3cc(OC)c(OC)c(OC)c3)nc2N)n1
24,15.6%,COc1cc(Nc2nc(N)c(-c3nc(-c4ccc(C#N)cc4)cs3)s2)cc(OC)c1OC
25,-3.5%,COc1ccccc1-c1csc(-c2sc(Nc3cc(OC)c(OC)c(OC)c3)nc2N)n1

row,inhibition,Compound
1,-6.4%,COc1ccccc1-c1csc(-c2sc(Nc3ccc(N(C)C)cc3)nc2N)n1
2,-7.5%,COc1cc(Nc2nc(N)c(C3=NC(c4cc(F)c(C)c(Cl)c4)CS3)s2)cc(OC)c1OC (stereo unspecified)
3,19%,COc1cc(Nc2nc(N)c(-c3nc(-c4ccc5oc6ccccc6c5c4)cs3)s2)cc(OC)c1OC
4,-6%,COc1cc(Nc2nc(N)c(-c3nc(-c4cc5cc(Cl)ccc5o4)cs3)s2)cc(OC)c1OC
5,17.5%,COc1cc(Nc2nc(N)c(-c3nc(-c4cc(-c5ccc(Cl)c(Cl)c5)no4)cs3)s2)cc(OC)c1OC
6,-12.3%,COc1cc(Nc2nc(N)c(-c3nc(-c4cccc(OC(=O)c5ccccc5)c4)cs3)s2)cc(OC)c1OC
7,23.2%,CCOC(=O)c1cc(-c2csc(-c3sc(Nc4cc(OC)c(OC)c(OC)c4)nc3N)n2)on1
8,11.2%,COc1cc(Nc2nc(N)c(-c3nc(-c4cc(-c5ccccc5)no4)cs3)s2)cc(OC)c1OC
9,-2.1%,COc1cc(Nc2nc(N)c(-c3nc(-c4ccc(C)cc4)cs3)s2)cc(OC)c1OC
10,-2.7%,COc1ccc2nc(-c3ccccc3)c(-c3csc(-c4sc(Nc5cc(OC)c(OC)c(OC)c5)nc4N)n3)cc2c1
11,19.8%,COc1cc(Nc2nc(N)c(-c3nc(-c4c(C)c(C)c(C)c(C)c4C)cs3)s2)cc(OC)c1OC
12,15.6%,COc1cc(Nc2nc(N)c(-c3nc(-c4cccc(Br)c4)cs3)s2)cc(OC)c1OC
13,3%,COc1cc(Nc2nc(N)c(-c3nc(-c4ccc(O)cc4)cs3)s2)cc(OC)c1OC
14,1.6%,COc1cc(Nc2nc(N)c(-c3nc(-c4ccccc4OC(C)=O)cs3)s2)cc(OC)c1OC
15,-2.5%,CN(C)c1ccc(Nc2nc(N)c(-c3nc(-c4ccc5c(c4)CCC(=O)N5)cs3)s2)cc1
16,13.8%,CCc1cc2c(cc1-c1csc(-c3sc(Nc4cc(OC)c(OC)c(OC)c4)nc3N)n1)C(C)(C)CCC2(C)C
17,21%,COc1cc(Nc2nc(N)c(-c3noc(-c4ccsc4)n3)s2)cc(OC)c1OC
18,5.4%,COc1cc(Nc2nc(N)c(-c3nc(-c4ccc5c(c4)OCCO5)cs3)s2)cc(OC)c1OC
19,1.2%,COc1cc(Nc2nc(N)c(-c3nc(-c4ccc(C)cc4C)cs3)s2)cc(OC)c1OC
20,61.5%,Cc1c(-c2csc(-c3sc(Nc4ccc(S(N)(=O)=O)cc4)nc3N)n2)sc2ccc(Cl)cc12
21,-4.8%,COc1cc(Nc2nc(N)c(-c3nc(-c4ccc(Cl)c([N+](=O)[O-])c4)cs3)s2)cc(OC)c1OC
22,11.6%,COc1cc(Nc2nc(N)c(-c3nc(-c4ccc5ccccc5c4)cs3)s2)cc(OC)c1OC
23,10.3%,COc1cc(Nc2nc(N)c(-c3nc(-c4c(Cl)c(Cl)nc(Cl)c4Cl)cs3)s2)cc(OC)c1OC
24,27.1%,CN(C)c1ccc(Nc2nc(N)c(-c3nc(-c4cccc(OC(=O)c5ccccc5)c4)cs3)s2)cc1
